Source: EP4702986A1, “POLYPEPTIDE AND USE THEREOF” (Biocells (Beijing) Biotech Co., Ltd., priority 2023, dated 2024)
Entries after “also recorded” stand apart in the source; their conditions may differ. Where two headings read alike, the source gives them in different places. Numbered stars: 1 amine (or outer) side, 2 acyl side, 3 side chain; on linkers, the order of the positions; unused ones are H or OH. Side chains are listed from the residue outwards. Ends that are not written are not given here. Peptide text beside a SMILES is read from it. * marks the point of attachment. C18 diacid = O=C(O)CCCCCCCCCCCCCCCCC(=O)*; γGlu = O=C(O)[C@H](CCC(=O)[*:2])N[*:1]; Fumaroyl = O=C(O)/C=C/C(=O)*; Suc = O=C(CCC(=O)[*:2])[*:1]; Lauroyl = CCCCCCCCCCCC(=O)*; AEEA = NCCOCCOCC(=O)O

How the values were obtained:
male SD rats = conditions: one animal per row, observed 48 hours
Description: In an experiment about acute toxicity of subcutaneous administration, male SD rats weighing 200-230 g were dosed in a range between 60 µg/Kg and 960 µg/Kg. Observation was made for 48 hours after subcutaneous administration. Toxic response and mortality of the rats were preliminarily observed, and time of death and doses without mortality were recorded. The level of acute toxicity of the polypeptides was preliminarily determined based on the doses without mortality.

rat model of pMACO = assay: Grip strength test in rat model of pMACO; format: in vivo, SD rats
SD rats = test system: SD rats
Description: Male SD rats were anesthetized with isoflurane, and their neck hairs were shaved. A midline incision was made on the neck to expose the trachea. A ventilator and anesthesia machine for small animals were turned on, with concentration of an anesthetic gas set to 1.2, and its exit channel connected to an inlet of the ventilator. Tidal volume of the ventilator was set to 2 mL, the respiratory rate was 90 breaths/minute, and the respiratory ratio was 1:2. An outlet end of the ventilator was connected to a plastic hose, which was inserted into the rat's airway.
A machine and a software of a biological signal data acquisition and analysis system were turned on. One end of a data acquisition plate was connected to the plastic hose, and the other end was connected to a collector valve connected with a 1-mL syringe. The syringe was filled with heparinized saline, which was injected into the data acquisition plate to expel the air in the entire space until the heparinized saline flowed out from the other end of the plastic hose. The right common carotid arteries of the rats were isolated. A dead knot was made at the distal end and a slipknot at the proximal end of a right common carotid artery. A 1/2-sized incision was made in the artery between the knot with a microscissor, and the plastic hose with heparinized saline was inserted into the incision and fixed to prevent back-and-forth movement. The initial value of the blood pressure was set to zero with the zero-adjustment valve of the biological signal data acquisition and analysis system. The slipknot at the proximal end of the common carotid artery was untied, and real-time blood pressure data of the animal appeared on the software. […] The dosages of IRL1620, BX34, and BX229 were 5 µg/Kg, 42 µg/kg, and 6.6 µg/Kg, respectively.

human ETB receptor = target: T1, human ETB receptor (Homo sapiens, UniProt P24530); assay: Screening of polypeptides for activity on human ETB receptor (IP-One Gq kit, % of positive control IRL1620); format: cell-based
T1 construct: expressed in transfected cells; host or cells: 293T-17 cells, transient transfection
T1 sequence (P24530 27-442): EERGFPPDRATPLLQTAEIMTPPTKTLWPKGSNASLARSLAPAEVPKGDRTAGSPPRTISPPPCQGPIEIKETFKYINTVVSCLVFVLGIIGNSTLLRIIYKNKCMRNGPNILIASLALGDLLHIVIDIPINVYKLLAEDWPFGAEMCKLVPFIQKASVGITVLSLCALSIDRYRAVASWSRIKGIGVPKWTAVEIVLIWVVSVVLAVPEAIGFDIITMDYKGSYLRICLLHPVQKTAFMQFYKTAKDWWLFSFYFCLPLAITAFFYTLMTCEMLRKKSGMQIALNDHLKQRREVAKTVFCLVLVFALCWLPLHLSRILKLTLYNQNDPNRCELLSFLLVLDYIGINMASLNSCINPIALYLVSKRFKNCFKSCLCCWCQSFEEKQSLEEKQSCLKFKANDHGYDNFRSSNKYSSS
Description: 293T-17 cells were seeded at a density of 650,000 cells per well in a 6-well plate and cultured overnight in an incubator at 37°C and 5% CO2. Afterward, the cells were transfected with an expression vector, PCDNA3.1-hETB which contained a human ETB receptor gene, at a plasmid concentration of 2.5 µg per well. The cells were further cultured for 48 hours, and green fluorescence expression was observed under a fluorescence microscope. The cells were then digested with trypsin and counted. The activity of compounds on the human ETB receptor was determined with the IP-One Gq kit from Cisbio Bioassays. The cells were suspended in Stim Buffer provided in the kit and the cell suspension was added to a 96-well detection plate at 7 µL cell suspension (containing 30,000 cells) per well. The polypeptides to be screened for activity (prepared according to the Preparation Example of the invention) and polypeptide IRL1620 as positive control were dissolved in Stim B to be at a concentration of 2×, and 7 µL was added to the test cells, while 7 µL of PBS solution was added to the cells in the negative control wells. IRL1620 was used as the positive control polypeptide. The plate was sealed and incubated at 37°C for 1 hour in a cell culture incubator. Test wells, positive control wells, and PBS control wells were each added with 3 µL of IP1 d2 working solution and 3 µL of IP1 Tb cryptotate Antibody working solution. The plate was then sealed and incubated in the dark at room temperature (25°C±5°C) for 1 hour. The plate seal was removed, and the […] at 665 nm and 620 nm was measured with an ID5 microplate reader. The ratio of the acceptor emission signal to the donor emission signal, i.e., the value of (signal at 665 nm/signal at 620 nm)×10^4, was calculated for each well. With F1 representing the average value of values of signal at 665 nm/signal at 620 nm determined for the test sample at a specific concentration, F2 representing the average value of values of signal at 665 nm/signal at 620 nm determined for the positive control IRL1620 at the same concentration, and T1 representing the average value of values of signal at 665 nm/signal at 620 nm determined for the PBS negative control, the percentage of activity of the test polypeptide sample relative to the positive control sample IRL1620 is equal to (F1-T1)×100/(F2-T1). hETB sequence (NCBI accession number NM_000115.5).

[1] = pMACO rats, 3 administrations (2, 4, 6 h after modeling), IRL1620 5µg/Kg, BX34 7µg/Kg, BX48 5µg/Kg
[2] = SD rats, tail vein, IRL620 5 µg/Kg, BX34 42 µg/Kg, BX229 6.6 µg/Kg
[3] = intravenous, IRL1620 5 µg/Kg, BX34 42 µg/Kg, BX229 6.6 µg/Kg

For `CCCCCCCCCCCC(=O)N[C@@H](CCC(=O)NCCOCCOCC(=O)NCCCC[C@H](NC(=O)[C@H](Cc1c[nH]cn1)NC(=O)[C@H](C)NC(=O)[C@H](Cc1ccccc1)NC(=O)[C@H](Cc1ccc(O)cc1)NC(=O)[C@@H](NC(=O)[C@H](C)NC(=O)[C@H](CCC(=O)O)NC(=O)[C@H](CCC(=O)O)NC(=O)[C@H](CC(=O)O)NC(=O)/C=C/C(=O)O)C(C)C)C(=O)N[C@@H](CC(=O)O)C(=O)N[C@H](C(=O)N[C@H](C(=O)N[C@@H](Cc1c[nH]c2ccccc12)C(=O)O)[C@@H](C)CC)C(C)C)C(=O)O` [BX229-Na] (Fumaroyl-DEEAVYFAHK([AEEA-γGlu-Lauroyl])DVIW-OH), the “Observations of Animal Status” value (male SD rats; subcutaneous 120 µg/Kg) was “No obvious reaction observed within 24 hours”, the “Observations of Animal Status” value (male SD rats; subcutaneous 240 µg/Kg) was “No obvious abnormal reaction observed within 48 hours” and the “Observations of Animal Status” value (male SD rats; subcutaneous 480 µg/Kg) was “No obvious abnormal reaction observed within 48 hours”. The “Observations of Animal Status” value (male SD rats; subcutaneous 960 µg/Kg) was “No significant reaction within 2 hours, died at 2 hours and 10 minutes; also recorded: No obvious abnormal reaction observed within 48 hours”.
`CC[C@H](C)[C@H](NC(=O)[C@H](CC(=O)O)NC(=O)[C@H](CCCCNC(=O)COCCOCCNC(=O)COCCOCCNC(=O)CC[C@H](NC(=O)CCCCCCCCCCCCCCCCC(=O)O)C(=O)O)NC(=O)[C@H](Cc1c[nH]cn1)NC(=O)[C@H](C)NC(=O)[C@H](Cc1ccccc1)NC(=O)[C@H](Cc1ccc(O)cc1)NC(=O)[C@@H](NC(=O)[C@H](C)NC(=O)[C@H](CCC(=O)O)NC(=O)[C@H](CCC(=O)O)NC(=O)[C@H](CC(=O)O)NC(=O)/C=C/C(=O)O)C(C)C)C(=O)N[C@H](C(=O)N[C@@H](Cc1c[nH]c2ccccc12)C(=O)O)[C@@H](C)CC` [BX-34] (Fumaroyl-DEEAVYFAHK([AEEA-AEEA-γGlu-C18 diacid])DIIW-OH) was tested, and the “Grip Strength Test 3D/pre” value (rat model of pMACO; rat, in vivo) was 63% ±14%, the “Grip Strength Test 7D/pre” value (rat model of pMACO; rat, in vivo) was 67% ±19% and the “Grip Strength Test 24h/pre” value (rat model of pMACO; rat, in vivo) was 40% ±24%. The “maximum extent of decrease in blood pressure, of the baseline blood pressure” value (SD rats; rat, in vivo) was 9.5%±1.7%, the “time to the lowest blood pressure” value (SD rats; rat, in vivo) was 20 to 35 min and the “Maximum percentage of blood pressure reduction relative to baseline blood pressure (n = 3)” value (SD rats; rat, in vivo, iv) was 9.5%±1.7%. For the same compound, the “Time from baseline blood pressure to the lowest blood pressure” value (SD rats; rat, in vivo, iv) was 20 to 35 min.
With `CC[C@H](C)[C@H](NC(=O)[C@H](CC(=O)O)NC(=O)[C@H](CC(C)C)NC(=O)[C@H](Cc1c[nH]cn1)NC(=O)[C@H](C)NC(=O)[C@H](Cc1ccccc1)NC(=O)[C@H](Cc1ccc(O)cc1)NC(=O)[C@@H](NC(=O)[C@H](C)NC(=O)[C@H](CCC(=O)O)NC(=O)[C@H](CCC(=O)O)NC(=O)[C@H](CC(=O)O)NC(=O)CCC(=O)O)C(C)C)C(=O)N[C@H](C(=O)N[C@@H](Cc1c[nH]c2ccccc12)C(=O)O)[C@@H](C)CC` [IRL1620, reference compound] (Suc-DEEAVYFAHLDIIW-OH) the “Observations of Animal Status” value (male SD rats; subcutaneous 60 µg/Kg) was “Developed rapid breathing at 25 minutes after administration, recovered after 15 minutes; also recorded: Developed rapid breathing at 26 minutes after administration, recovered after 16 minutes; also recorded: Developed rapid breathing at 30 minutes after administration, recovered after 17 minutes; also recorded: Developed rapid breathing at 25 minutes after administration, recovered after 16 minutes”, the “Observations of Animal Status” value (male SD rats; subcutaneous 120 µg/Kg) was “Developed rapid breathing at 27 minutes after administration, gradually recovered after 50 minutes; also recorded: Developed rapid breathing at 26 minutes after administration and lasted for 23 minutes; then died; also recorded: Developed rapid breathing at 26 minutes after administration, gradually recovered after 50 minutes; also recorded: Developed rapid breathing at 28 minutes after administration, gradually recovered after 50 minutes” and the “Grip Strength Test 3D/pre” value (rat model of pMACO; [1]) was 57%±11%. The “Grip Strength Test 7D/pre” value (rat model of pMACO; [1]) was 61%+13%, the “Grip Strength Test 24h/pre” value (rat model of pMACO; [1]) was 47% ±27% and the “maximum extent of decrease in blood pressure, of the baseline blood pressure” value (SD rats; [2]) was 16.1%±2.4%. The “time to the lowest blood pressure” value (SD rats; [2]) was ≤ 2 min, the “Maximum percentage of blood pressure reduction relative to baseline blood pressure (n = 3)” value (SD rats; [3]) was 16.1%±2.4% and the “Time from baseline blood pressure to the lowest blood pressure” value (SD rats; [3]) was “Less than 2 mins”.
“Fum-DEEEVYFAHKDIIW (Fumaroyl-DEEEVYFAHKDIIW) [BX-52]” was tested, and the “hETBR agonist activity, percentage of activity relative to IRL1620” value (human ETB receptor) was 121.00%@100nM and the “hETBR agonist activity, percentage of activity relative to IRL1620” value (human ETB receptor; @10nM) was 145.60%@10nM.
With Fum-DEEEVYFAHOrnDIIW [BX-59] the “hETBR agonist activity, percentage of activity relative to IRL1620” value (human ETB receptor) was 93.46%@100nM and the “hETBR agonist activity, percentage of activity relative to IRL1620” value (human ETB receptor; @10nM) was 125.64%@10nM.
“Suc-DE cyclo(CEEC)YFAHKDIIW (Suc-DECEECYFAHKDIIW; not fully specified (bridges); printed as Suc-DE cyclo(CEEC)YFAHKDIIW; also: cyclo(CEEC) in N-terminal extension, bond type not given here) [BX-57]” was tested, and the “hETBR agonist activity, percentage of activity relative to IRL1620” value (human ETB receptor) was 121.58%@100nM and the “hETBR agonist activity, percentage of activity relative to IRL1620” value (human ETB receptor; @10nM) was 86.20%@10nM.
